From patent US20200017496A1 (priority 2017, published 2020)
Like-named read-outs stand apart in the source and are kept apart here.

How the values were obtained:
Assay in all cases: MIC of compounds alone and combined with antibacterials, broth microdilution (CLSI)
Assay type in all cases: cell-based
[1] = test system: Citrobacter freundii (CFR) isolates
Outline: (§1)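 Inoculum 5·10^5 CFU/mL (final), log phase, ca-MHB; 16-20 h, 35° C, ambient air. MIC = lowest conc. with no visible growth; ATB MIC read at each compound level.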

[2] = test system: Klebsiella oxytoca (KOX) isolates; conditions: for MIC: Klebsiella oxytoca
Outline: as §1

[3] = test system: Citrobacter koseri (CKR) isolates; conditions: for MIC: Citrobacter koseri, read-out: MIC
Outline: as §1

[4] = test system: Klebsiella pneumoniae (KPN) isolates
Outline: as §1

With `C=CC1=C(C(=O)O)N2C(=O)[C@@H](NC(=O)/C(=N\OCC(=O)O)c3csc(N)n3)[C@H]2SC1` [FIX, Cefixime] the “MIC ATB in combination” value ([1]; strain CFR UFR253, antibacterial combined with AF1 @ 4 μg/mL) was 32 µg/mL, the “MIC ATB in combination” value ([1]; strain CFR UFR253, antibacterial combined with AF1 @ 8 μg/mL) was 16 µg/mL and the “MIC ATB in combination” value ([1]; strain CFR UFR254, antibacterial combined with AF1 @ 4 μg/mL) was 0.5 µg/mL. The “MIC ATB in combination” value ([1]; strain CFR UFR254, antibacterial combined with AF1 @ 8 μg/mL) was “<=0.25 μg/mL”, the “MIC ATB in combination” value ([2]; KOX UFR21, AF1 @ 4 μg/mL) was 2 µg/mL and the “MIC ATB in combination” value ([2]; KOX UFR21, AF1 @ 8 μg/mL) was 1 µg/mL. For the same compound, the “MIC ATB in combination” value ([2]; KOX UFR173, AF1 @ 4 μg/mL) was “<=0.25 μg/mL”, the “MIC ATB in combination” value ([2]; KOX UFR173, AF1 @ 8 μg/mL) was “<=0.25 μg/mL” and the “MIC ATB in combination” value ([2]; KOX UFR223, AF1 @ 4 μg/mL) was “<=0.25 μg/mL”. The “MIC ATB in combination” value ([2]; KOX UFR223, AF1 @ 8 μg/mL) was “<=0.25 μg/mL”, the “MIC ATB in combination” value ([2]; KOX UFR224, AF1 @ 4 μg/mL) was “<=0.25 μg/mL” and the “MIC ATB in combination” value ([2]; KOX UFR224, AF1 @ 8 μg/mL) was “<=0.25 μg/mL”. The MIC ([2]; strain KOX UFR21 (TEM-1, CTX-M-15, OXA-48), ATB alone) was > 128 µg/mL, the MIC ([2]; strain KOX UFR21 (TEM-1, CTX-M-15, OXA-48), CLA @ 4 μg/ml+ ATB) was > 128 µg/mL and the MIC ([2]; strain KOX UFR173 (OXY2-2), ATB alone, read-out: MIC) was 16 µg/mL. The MIC ([2]; strain KOX UFR173 (OXY2-2), CLA @ 4 μg/ml+ ATB, read-out: MIC) was 4 µg/mL, the MIC ([2]; strain KOX UFR223 (SHV-11, OXA-48), ATB alone, read-out: MIC) was ≤ 0.125 µg/mL and the MIC ([2]; strain KOX UFR223 (SHV-11, OXA-48), CLA @ 4 μg/ml+ ATB, read-out: MIC) was ≤ 0.25 µg/mL. The MIC ([2]; strain KOX UFR224 (CTX-M-15, OXA-48), ATB alone) was > 128 µg/mL, the MIC ([2]; strain KOX UFR224 (CTX-M-15, OXA-48), CLA @ 4 μg/ml+ ATB, read-out: MIC) was 8 µg/mL and the “MIC ATB in combination” value ([3]; CKO ROU, AF1 @ 4 μg/mL) was “<=0.25 μg/mL”. The “MIC ATB in combination” value ([3]; CKO ROU, AF1 @ 8 μg/mL) was “<=0.25 μg/mL”, the “MIC ATB in combination” value ([3]; CKO UFR149, AF1 @ 4 μg/mL) was 0.5 µg/mL and the “MIC ATB in combination” value ([3]; CKO UFR149, AF1 @ 8 μg/mL) was “<=0.25 μg/mL”. The “MIC ATB in combination” value ([3]; CKO UFR150, AF1 @ 4 μg/mL) was 2 µg/mL, the “MIC ATB in combination” value ([3]; CKO UFR150, AF1 @ 8 μg/mL) was 1 µg/mL and the MIC ([3]; strain CKO ROU (TEM-1, SHV-12, CTX-M-15, OXA-1, OXA-48), ATB alone) was 1 µg/mL. For the same compound, the MIC ([3]; strain CKO ROU (TEM-1, SHV-12, CTX-M-15, OXA-1, OXA-48), CLA @ 4 μg/ml+ ATB) was 2 µg/mL, the MIC ([3]; strain CKO UFR149 (OXA-48), ATB alone) was 0.5 µg/mL and the MIC ([3]; strain CKO UFR149 (OXA-48), CLA @ 4 μg/ml+ ATB) was 1 µg/mL. For the same compound, the MIC ([3]; strain CKO UFR150 (TEM-1, OXA-48), ATB alone) was 2 µg/mL, the MIC ([3]; strain CKO UFR150 (TEM-1, OXA-48), CLA @ 4 μg/ml+ ATB) was 2 µg/mL and the “MIC ATB in combination” value [4] was >128 µg/mL. For the same compound, the “MIC ATB in combination” value ([4]; KPN 6299, AF1 @ 4 μg/mL) was “<=0.25 μg/mL”, the “MIC ATB in combination” value ([4]; KPN 6299, AF1 @ 8 μg/mL) was “<=0.25 μg/mL” and the “MIC ATB in combination” value ([4]; KPN 110376, AF1 @ 4 μg/mL) was 0.125 µg/mL. The “MIC ATB in combination” value ([4]; KPN 110376, AF1 @ 8 μg/mL) was 0.125 µg/mL, the “MIC ATB in combination” value ([4]; KPN 131119, AF1 @ 4 μg/mL) was “<=0.25 μg/mL” and the “MIC ATB in combination” value ([4]; KPN 131119, AF1 @ 8 μg/mL) was “<=0.25 μg/mL”. The “MIC ATB in combination” value ([4]; KPN 140513, AF1 @ 4 μg/mL) was 4 µg/mL, the “MIC ATB in combination” value ([4]; KPN 140513, AF1 @ 8 μg/mL) was 0.5 µg/mL and the “MIC ATB in combination” value ([4]; KPN 160143, AF1 @ 4 μg/mL) was “<=0.25 μg/mL”. For the same compound, the “MIC ATB in combination” value ([4]; KPN 160143, AF1 @ 8 μg/mL) was “<=0.25 μg/mL”, the “MIC ATB in combination” value ([4]; KPN 190128, AF1 @ 4 μg/mL) was 0.5 µg/mL and the “MIC ATB in combination” value ([4]; KPN 190128, AF1 @ 8 μg/mL) was “<=0.25 μg/mL”. The “MIC ATB in combination” value ([4]; KPN 190270, AF1 @ 4 μg/mL) was 0.5 µg/mL, the “MIC ATB in combination” value ([4]; KPN 190270, AF1 @ 8 μg/mL) was “<=0.25 μg/mL” and the “MIC ATB in combination” value ([4]; KPN 190425, AF1 @ 4 μg/mL) was “<=0.25 μg/mL”. The “MIC ATB in combination” value ([4]; KPN 190425, AF1 @ 8 μg/mL) was “<=0.25 μg/mL”, the “MIC ATB in combination” value ([4]; KPN 190551, AF1 @ 4 μg/mL) was “<=0.25 μg/mL” and the “MIC ATB in combination” value ([4]; KPN 190551, AF1 @ 8 μg/mL) was “<=0.25 μg/mL”. The “MIC ATB in combination” value ([4]; KPN 200047, AF1 @ 4 μg/mL) was “<=0.25 μg/mL”, the “MIC ATB in combination” value ([4]; KPN 200047, AF1 @ 8 μg/mL) was “<=0.25 μg/mL” and the “MIC ATB in combination” value ([4]; KPN 200327, AF1 @ 4 μg/mL) was “<=0.25 μg/mL”. For the same compound, the “MIC ATB in combination” value ([4]; KPN 200327, AF1 @ 8 μg/mL) was “<=0.25 μg/mL”, the “MIC ATB in combination” value ([4]; KPN 260251, AF1 @ 4 μg/mL) was “<=0.25 μg/mL” and the “MIC ATB in combination” value ([4]; KPN 260251, AF1 @ 8 μg/mL) was 0.5 µg/mL. The “MIC ATB in combination” value ([4]; KPN 260252, AF1 @ 4 μg/mL) was 8 µg/mL, the “MIC ATB in combination” value ([4]; KPN 260252, AF1 @ 8 μg/mL) was 4 µg/mL and the “MIC ATB in combination” value ([4]; KPN 260376, AF1 @ 4 μg/mL) was “<=0.25 μg/mL”. For the same compound, the “MIC ATB in combination” value ([4]; KPN 260376, AF1 @ 8 μg/mL) was “<=0.25 μg/mL”, the “MIC ATB in combination” value ([4]; KPN 270077, AF1 @ 4 μg/mL) was 0.5 µg/mL and the “MIC ATB in combination” value ([4]; KPN 270077, AF1 @ 8 μg/mL) was “<=0.25 μg/mL”. For the same compound, the “MIC ATB in combination” value ([4]; KPN 700603, AF1 @ 4 μg/mL) was “<=0.25 μg/mL”, the “MIC ATB in combination” value ([4]; KPN 700603, AF1 @ 8 μg/mL) was “<=0.25 μg/mL” and the “MIC ATB in combination” value ([4]; KPN ARA, AF1 @ 4 μg/mL) was “<=0.25 μg/mL”. The “MIC ATB in combination” value ([4]; KPN ARA, AF1 @ 8 μg/mL) was “<=0.25 μg/mL”, the “MIC ATB in combination” value ([4]; KPN BAA-1898, AF1 @ 4 μg/mL) was “<=0.25 μg/mL” and the “MIC ATB in combination” value ([4]; KPN BAA-1898, AF1 @ 8 μg/mL) was “<=0.25 μg/mL”. For the same compound, the “MIC ATB in combination” value ([4]; KPN LIB, AF1 @ 4 μg/mL) was “<=0.25 μg/mL”, the “MIC ATB in combination” value ([4]; KPN LIB, AF1 @ 8 μg/mL) was “<=0.25 μg/mL” and the “MIC ATB in combination” value ([4]; KPN UFR22_O, AF1 @ 4 μg/mL) was “<=0.25 μg/mL”. The “MIC ATB in combination” value ([4]; KPN UFR22_O, AF1 @ 8 μg/mL) was “<=0.25 μg/mL”, the “MIC ATB in combination” value ([4]; KPN UFR23, AF1 @ 4 μg/mL) was “<=0.25 μg/mL” and the “MIC ATB in combination” value ([4]; KPN UFR23, AF1 @ 8 μg/mL) was “<=0.25 μg/mL”. For the same compound, the “MIC ATB in combination” value ([4]; KPN UFR24, AF1 @ 4 μg/mL) was 0.5 µg/mL, the “MIC ATB in combination” value ([4]; KPN UFR24, AF1 @ 8 μg/mL) was 0.5 µg/mL and the “MIC ATB in combination” value ([4]; KPN UFR25, AF1 @ 4 μg/mL) was “<=0.25 μg/mL”. For the same compound, the “MIC ATB in combination” value ([4]; KPN UFR25, AF1 @ 8 μg/mL) was “<=0.25 μg/mL”, the “MIC ATB in combination” value ([4]; KPN UFR27, AF1 @ 4 μg/mL) was 16 µg/mL and the “MIC ATB in combination” value ([4]; KPN UFR27, AF1 @ 8 μg/mL) was 2 µg/mL. For the same compound, the “MIC ATB in combination” value ([4]; KPN UFR28, AF1 @ 4 μg/mL) was “<=0.25 μg/mL”, the “MIC ATB in combination” value ([4]; KPN UFR28, AF1 @ 8 μg/mL) was “<=0.25 μg/mL” and the “MIC ATB in combination” value ([4]; KPN UFR65, AF1 @ 4 μg/mL) was “<=0.25 μg/mL”. The “MIC ATB in combination” value ([4]; KPN UFR65, AF1 @ 8 μg/mL) was “<=0.25 μg/mL” and the “MIC ATB in combination” value ([4]; KPN UFR66, AF1 @ 4 μg/mL) was 1 µg/mL.
